Measurements from patent US8455475B2 (Gruenenthal GmbH, priority 2009, dated 2013).

Target: T1, rat B1R (bradykinin receptor 1) (Rattus norvegicus, UniProt P97583)
T1 construct: expressed in transfected cells; host or cells: CHO K1 cells
T1 sequence (P97583 1-337): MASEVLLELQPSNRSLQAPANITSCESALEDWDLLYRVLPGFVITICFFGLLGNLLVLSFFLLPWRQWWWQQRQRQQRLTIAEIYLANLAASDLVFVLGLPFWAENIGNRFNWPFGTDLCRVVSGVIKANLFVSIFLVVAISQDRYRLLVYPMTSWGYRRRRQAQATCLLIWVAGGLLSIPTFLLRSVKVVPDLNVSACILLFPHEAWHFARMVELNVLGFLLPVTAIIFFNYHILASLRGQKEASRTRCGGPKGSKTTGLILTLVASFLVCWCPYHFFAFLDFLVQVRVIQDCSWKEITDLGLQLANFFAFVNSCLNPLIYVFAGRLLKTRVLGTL
Assay: FLIPR Ca2+ assay (Fluo-4) on CHO K1 cells stably transfected with the B1R gene of the rat (rB1R cells): % inhibition at 10 μM / IC50, agonist Des-Arg9-bradykinin
Type: cell-based
Settings: CHO-K1, rat B1R
Method in brief: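 Stably transfected CHO K1 cells loaded with Fluo-4 and read on FLIPR (λex 488, λem 540 nm; peak fluorescence). Test substance (10 μM) added first, then after 10–20 min the agonist at EC80; % inhibition versus maximum achievable inhibition. IC50 from several concentrations, n=2–3, N≥2.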

`O=C(c1ccc2c(c1)C(NS(=O)(=O)Cc1cccc(Cl)c1)CC2)N1CCC2(CC1)CCN(c1ccncc1)CC2` (stereo not drawn) [IND_CC-352, 1-(3-Chlorophenyl)-N-[6-(9-pyridin-4-yl-3,9-diazaspiro[5.5]undecane-3-carbonyl)-2,3-dihydro-1H-inden-1-yl]-methanesulfonic acid amide] was tested, and the inhibition at 10 µM was 98%.
In the case of `O=C(c1ccc2c(c1)C(NS(=O)(=O)Cc1cccc(Cl)c1)CC2)N1CCC2(CC1)CCN(c1ccncc1)C2` (stereo not drawn) [IND_CC-353, 1-(3-Chlorophenyl)-N-[6-(2-pyridin-4-yl-2,8-diazaspiro[4.5]decane-8-carbonyl)-2,3-dihydro-1H-inden-1-yl]-methanesulfonic acid amide], the inhibition at 10 µM is reported as 97%.
`Cc1cc(F)cc(C)c1S(=O)(=O)N(C)C1CCc2ccc(C(=O)N3CCC4(CC3)CCN(c3ccncc3)CC4)cc21` (stereo not drawn) [IND_CC-354, 4-Fluoro-N,2,6-trimethyl-N-[6-(9-pyridin-4-yl-3,9-diazaspiro[5.5]undecane-3-carbonyl)-2,3-dihydro-1H-inden-1-yl]-benzenesulfonic acid amide] was tested, and the inhibition at 10 µM was 84%.
In the case of `Cc1cc(F)cc(C)c1S(=O)(=O)NC1CCc2ccc(C(=O)N3CCC4(CC3)CCN(c3ccncc3)CC4)cc21` (stereo not drawn) [IND_CC-355, 4-Fluoro-2,6-dimethyl-N-[6-(9-pyridin-4-yl-3,9-diazaspiro[5.5]undecane-3-carbonyl)-2,3-dihydro-1H-inden-1-yl]-benzenesulfonic acid amide], the inhibition at 10 µM is reported as 65%.
In the case of `Cc1cc(F)cc(C)c1S(=O)(=O)NC1CCc2ccc(C(=O)N3CCC4(CC3)CCN(c3ccncc3)C4)cc21` (stereo not drawn) [IND_CC-356, 4-Fluoro-2,6-dimethyl-N-[6-(2-pyridin-4-yl-2,8-diazaspiro[4.5]decane-8-carbonyl)-2,3-dihydro-1H-inden-1-yl]-benzenesulfonic acid amide], the inhibition at 10 µM is reported as 69%.
Work on `O=C(c1ccc2c(c1)C(NS(=O)(=O)c1cc(Cl)ccc1Cl)CC2)N1CCC2(CCN(c3ccncc3)CC2)C1` (stereo not drawn) [IND_CC-357, 2,5-Dichloro-N-[6-(8-pyridin-4-yl-2,8-diazaspiro[4.5]decane-2-carbonyl)-2,3-dihydro-1H-inden-1-yl]-benzenesulfonic acid amide] yielded an inhibition at 10 µM of 95%.
`O=C(c1ccc2c(c1)C(NS(=O)(=O)Cc1ccccc1F)CC2)N1CCC2(CCN(c3ccncc3)CC2)C1` (stereo not drawn) [IND_CC-359, 1-(2-Fluorophenyl)-N-[6-(8-pyridin-4-yl-2,8-diazaspiro[4.5]decane-2-carbonyl)-2,3-dihydro-1H-inden-1-yl]-methanesulfonic acid amide] gave an inhibition at 10 µM of 104%.
For `O=C(c1ccc2c(c1)C(NS(=O)(=O)Cc1cccc(Cl)c1)CC2)N1CCC2(CCN(c3ccncc3)CC2)C1` (stereo not drawn) [IND_CC-360, 1-(3-Chlorophenyl)-N-[6-(8-pyridin-4-yl-2,8-diazaspiro[4.5]decane-2-carbonyl)-2,3-dihydro-1H-inden-1-yl]-methanesulfonic acid amide], the inhibition at 10 µM was 69%.
Work on `Cc1cc(F)cc(C)c1S(=O)(=O)NC1CCc2ccc(C(=O)N3CCC4(CCN(c5ccncc5)CC4)C3)cc21` (stereo not drawn) [IND_CC-361, 4-Fluoro-2,6-dimethyl-N-[6-(8-pyridin-4-yl-2,8-diazaspiro[4.5]decane-2-carbonyl)-2,3-dihydro-1H-inden-1-yl]-benzenesulfonic acid amide] yielded an inhibition at 10 µM of 99%.
Compound `CN(C1CCc2ccc(C(=O)N3CCC4(CC3)CCN(c3ccncc3)CC4)cc21)S(=O)(=O)c1cc(Cl)c(Cl)cc1Cl` (stereo not drawn) [IND_CC-362, 2,4,5-Trichloro-N-methyl-N-[6-(9-pyridin-4-yl-3,9-diazaspiro[5.5]undecane-3-carbonyl)-2,3-dihydro-1H-inden-1-yl]-benzenesulfonic acid amide] has an inhibition at 10 µM of 81%.
In the case of `O=C(c1ccc2c(c1)C(NS(=O)(=O)c1cc(Cl)c(Cl)cc1Cl)CC2)N1CCC2(CC1)CCN(c1ccncc1)C2` (stereo not drawn) [IND_CC-363, 2,4,5-Trichloro-N-[6-(2-pyridin-4-yl-2,8-diazaspiro[4.5]decane-8-carbonyl)-2,3-dihydro-1H-inden-1-yl]-benzenesulfonic acid amide], the inhibition at 10 µM is reported as 74%.
In the case of `O=C(NC1CCc2ccc(C(=O)N3CCC4(CC3)CCN(c3ccncc3)CC4)cc21)C1CCCCC1` (stereo not drawn) [IND_CC-364, N-[6-(9-Pyridin-4-yl-3,9-diazaspiro[5.5]undecane-3-carbonyl)-2,3-dihydro-1H-inden-1-yl]-cyclohexanecarboxylic acid amide], the inhibition at 10 µM is reported as 103%.
`CN(C(=O)C1CCCCC1)C1CCc2ccc(C(=O)N3CCC4(CC3)CCN(c3ccncc3)CC4)cc21` (stereo not drawn) [IND_CC-365, N-Methyl-N-[6-(9-pyridin-4-yl-3,9-diazaspiro[5.5]undecane-3-carbonyl)-2,3-dihydro-1H-inden-1-yl]-cyclohexanecarboxylic acid amide] was tested, and the inhibition at 10 µM was 105%.
`O=C(NC1CCc2ccc(C(=O)N3CCC4(CC3)CCN(c3ccncc3)C4)cc21)C1CCCCC1` (stereo not drawn) [IND_CC-366, N-[6-(2-Pyridin-4-yl-2,8-diazaspiro[4.5]decane-8-carbonyl)-2,3-dihydro-1H-inden-1-yl]-cyclohexanecarboxylic acid amide] was tested, and the inhibition at 10 µM was 104%.
For `O=C(NC1CCc2ccc(C(=O)N3CCC4(CCN(c5ccncc5)CC4)C3)cc21)C1CCCCC1` (stereo not drawn) [IND_CC-367, N-[6-(8-Pyridin-4-yl-2,8-diazaspiro[4.5]decane-2-carbonyl)-2,3-dihydro-1H-inden-1-yl]-cyclohexanecarboxylic acid amide], the inhibition at 10 µM was 104%.
`O=C(NC1CCc2ccc(C(=O)N3CCC4(CC3)CCN(c3ccncc3)CC4)cc21)C1CC1` (stereo not drawn) [IND_CC-368, N-[6-(9-Pyridin-4-yl-3,9-diazaspiro[5.5]undecane-3-carbonyl)-2,3-dihydro-1H-inden-1-yl]-cyclopropanecarboxylic acid amide] was tested, and the inhibition at 10 µM was 87%.
In the case of `CN(C(=O)C1CC1)C1CCc2ccc(C(=O)N3CCC4(CC3)CCN(c3ccncc3)CC4)cc21` (stereo not drawn) [IND_CC-369, N-Methyl-N-[6-(9-pyridin-4-yl-3,9-diazaspiro[5.5]undecane-3-carbonyl)-2,3-dihydro-1H-inden-1-yl]-cyclopropanecarboxylic acid amide], the inhibition at 10 µM is reported as 74%.
`O=C(NC1CCc2ccc(C(=O)N3CCC4(CCN(c5ccncc5)CC4)C3)cc21)C1CC1` (stereo not drawn) [IND_CC-370, N-[6-(8-Pyridin-4-yl-2,8-diazaspiro[4.5]decane-2-carbonyl)-2,3-dihydro-1H-inden-1-yl]-cyclopropanecarboxylic acid amide] was tested, and the inhibition at 10 µM was 100%.
`CC(C)(C)CC(=O)NC1CCc2ccc(C(=O)N3CCC4(CC3)CCN(c3ccncc3)CC4)cc21` (stereo not drawn) [IND_CC-371, 3,3-Dimethyl-N-[6-(9-pyridin-4-yl-3,9-diazaspiro[5.5]undecane-3-carbonyl)-2,3-dihydro-1H-inden-1-yl]-butyramide] gave an inhibition at 10 µM of 104%.
`CN(C(=O)CC(C)(C)C)C1CCc2ccc(C(=O)N3CCC4(CC3)CCN(c3ccncc3)CC4)cc21` (stereo not drawn) [IND_CC-372, N,3,3-Trimethyl-N-[6-(9-pyridin-4-yl-3,9-diazaspiro[5.5]undecane-3-carbonyl)-2,3-dihydro-1H-inden-1-yl]-butyramide] gave an inhibition at 10 µM of 105%.
`CC(C)(C)CC(=O)NC1CCc2ccc(C(=O)N3CCC4(CC3)CCN(c3ccncc3)C4)cc21` (stereo not drawn) [IND_CC-373, 3,3-Dimethyl-N-[6-(2-pyridin-4-yl-2,8-diazaspiro[4.5]decane-8-carbonyl)-2,3-dihydro-1H-inden-1-yl]-butyramide] gave an inhibition at 10 µM of 102%.
In the case of `CC(C)(C)CC(=O)NC1CCc2ccc(C(=O)N3CCC4(CCN(c5ccncc5)CC4)C3)cc21` (stereo not drawn) [IND_CC-374, 3,3-Dimethyl-N-[6-(8-pyridin-4-yl-2,8-diazaspiro[4.5]decane-2-carbonyl)-2,3-dihydro-1H-inden-1-yl]-butyramide], the inhibition at 10 µM is reported as 103%.
`CC(=O)NC1CCc2ccc(C(=O)N3CCC4(CCN(c5ccncc5)CC4)C3)cc21` (stereo not drawn) [IND_CC-375, N-[6-(8-Pyridin-4-yl-2,8-diazaspiro[4.5]decane-2-carbonyl)-2,3-dihydro-1H-inden-1-yl]-acetamide] showed an inhibition at 10 µM of 59%.
`O=C(NC1CCc2ccc(C(=O)N3CCC4(CC3)CCN(c3ccncc3)CC4)cc21)c1c(F)cccc1C(F)(F)F` (stereo not drawn) [IND_CC-376, 2-Fluoro-N-[6-(9-pyridin-4-yl-3,9-diazaspiro[5.5]undecane-3-carbonyl)-2,3-dihydro-1H-inden-1-yl]-6-(trifluoromethyl)-benzamide] showed an inhibition at 10 µM of 102%.
In the case of `O=C(NC1CCc2ccc(C(=O)N3CCC4(CC3)CCN(c3ccncc3)C4)cc21)c1c(F)cccc1C(F)(F)F` (stereo not drawn) [IND_CC-377, 2-Fluoro-N-[6-(2-pyridin-4-yl-2,8-diazaspiro[4.5]decane-8-carbonyl)-2,3-dihydro-1H-inden-1-yl]-6-(trifluoromethyl)-benzamide], the inhibition at 10 µM is reported as 104%.
Compound `O=C(NC1CCc2ccc(C(=O)N3CCC4(CCN(c5ccncc5)CC4)C3)cc21)c1c(F)cccc1C(F)(F)F` (stereo not drawn) [IND_CC-378, 2-Fluoro-N-[6-(8-pyridin-4-yl-2,8-diazaspiro[4.5]decane-2-carbonyl)-2,3-dihydro-1H-inden-1-yl]-6-(trifluoromethyl)-benzamide] has an inhibition at 10 µM of 104%.
`O=C(NC1CCc2ccc(C(=O)N3CCC4(CC3)CCN(c3ccncc3)CC4)cc21)c1ccc(F)cc1C(F)(F)F` (stereo not drawn) [IND_CC-379, 4-Fluoro-N-[6-(9-pyridin-4-yl-3,9-diazaspiro[5.5]undecane-3-carbonyl)-2,3-dihydro-1H-inden-1-yl]-2-(trifluoromethyl)-benzamide] gave an inhibition at 10 µM of 103%.
